Measurements published in ChEMBL document CHEMBL5291721, “A preclinical secondary pharmacology resource illuminates target-adverse drug reaction associations of marketed drugs” (Nat Commun, 2023).

Experiments:
[1] = molecular target: T1, Thromboxane A2 receptor (Homo sapiens, UniProt P21731); assay type: functional, cell-based
T1 sequence (P21731 whole entry): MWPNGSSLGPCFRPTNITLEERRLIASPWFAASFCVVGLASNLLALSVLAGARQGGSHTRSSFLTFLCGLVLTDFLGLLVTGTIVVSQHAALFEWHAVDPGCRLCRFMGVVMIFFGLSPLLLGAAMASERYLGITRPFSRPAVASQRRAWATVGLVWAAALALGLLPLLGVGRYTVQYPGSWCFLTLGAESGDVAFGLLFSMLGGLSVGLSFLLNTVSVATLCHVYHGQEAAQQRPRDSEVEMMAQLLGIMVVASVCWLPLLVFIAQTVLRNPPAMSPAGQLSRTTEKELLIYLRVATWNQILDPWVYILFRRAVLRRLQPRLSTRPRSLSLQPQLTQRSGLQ

[2] = molecular target: Vascular endothelial growth factor receptor 2 (Homo sapiens, UniProt P35968); assay type: functional
Chain of Vascular endothelial growth factor receptor 2 (P35968 whole entry): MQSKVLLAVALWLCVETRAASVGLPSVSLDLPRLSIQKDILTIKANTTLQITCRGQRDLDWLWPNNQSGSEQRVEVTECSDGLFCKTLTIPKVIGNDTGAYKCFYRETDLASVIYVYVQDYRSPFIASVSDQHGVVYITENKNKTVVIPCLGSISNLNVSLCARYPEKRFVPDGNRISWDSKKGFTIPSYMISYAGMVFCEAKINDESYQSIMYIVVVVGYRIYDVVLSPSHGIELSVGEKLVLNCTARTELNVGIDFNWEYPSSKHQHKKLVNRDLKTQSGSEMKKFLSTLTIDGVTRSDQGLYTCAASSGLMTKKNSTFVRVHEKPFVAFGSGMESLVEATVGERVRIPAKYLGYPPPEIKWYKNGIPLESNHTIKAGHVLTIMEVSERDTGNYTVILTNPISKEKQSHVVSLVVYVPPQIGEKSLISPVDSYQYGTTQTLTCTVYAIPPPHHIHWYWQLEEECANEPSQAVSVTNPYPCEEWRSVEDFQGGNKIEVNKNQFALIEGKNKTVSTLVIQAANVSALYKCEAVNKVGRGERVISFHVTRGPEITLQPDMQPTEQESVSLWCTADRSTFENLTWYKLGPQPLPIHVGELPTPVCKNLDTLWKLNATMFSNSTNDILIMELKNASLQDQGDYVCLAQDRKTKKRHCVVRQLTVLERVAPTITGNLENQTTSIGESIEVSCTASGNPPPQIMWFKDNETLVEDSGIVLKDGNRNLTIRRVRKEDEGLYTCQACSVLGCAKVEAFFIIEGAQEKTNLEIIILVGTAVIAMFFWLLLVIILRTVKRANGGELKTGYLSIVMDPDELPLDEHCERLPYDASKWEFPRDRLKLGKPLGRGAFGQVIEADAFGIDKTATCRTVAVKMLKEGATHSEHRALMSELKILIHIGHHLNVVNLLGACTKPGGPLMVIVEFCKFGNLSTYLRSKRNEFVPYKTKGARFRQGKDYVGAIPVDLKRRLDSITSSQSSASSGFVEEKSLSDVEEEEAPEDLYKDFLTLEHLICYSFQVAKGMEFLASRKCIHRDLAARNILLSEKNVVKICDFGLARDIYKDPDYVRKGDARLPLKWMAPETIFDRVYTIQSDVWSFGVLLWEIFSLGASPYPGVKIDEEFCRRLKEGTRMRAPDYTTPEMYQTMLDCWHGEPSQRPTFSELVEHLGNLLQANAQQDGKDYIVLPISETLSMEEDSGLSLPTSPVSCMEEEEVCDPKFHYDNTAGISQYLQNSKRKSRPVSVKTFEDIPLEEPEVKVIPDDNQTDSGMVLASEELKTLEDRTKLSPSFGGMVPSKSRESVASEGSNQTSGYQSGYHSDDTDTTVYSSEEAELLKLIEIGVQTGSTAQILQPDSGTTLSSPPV

[3] = molecular target: T2, Alpha-2A adrenergic receptor (Homo sapiens, UniProt P08913)
T2 sequence (P08913 whole entry): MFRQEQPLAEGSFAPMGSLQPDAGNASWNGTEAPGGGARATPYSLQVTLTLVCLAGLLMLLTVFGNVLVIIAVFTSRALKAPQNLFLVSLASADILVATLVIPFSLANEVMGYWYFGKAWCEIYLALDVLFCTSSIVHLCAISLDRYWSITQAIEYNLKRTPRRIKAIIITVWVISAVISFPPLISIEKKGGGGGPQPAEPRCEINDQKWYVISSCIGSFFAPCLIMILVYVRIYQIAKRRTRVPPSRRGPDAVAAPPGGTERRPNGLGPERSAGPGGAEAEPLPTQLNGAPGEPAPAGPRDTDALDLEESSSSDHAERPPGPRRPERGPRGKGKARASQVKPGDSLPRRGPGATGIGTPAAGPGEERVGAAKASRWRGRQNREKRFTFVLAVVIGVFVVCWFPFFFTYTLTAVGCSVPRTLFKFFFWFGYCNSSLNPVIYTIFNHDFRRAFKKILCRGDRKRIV

[4] = molecular target: Sodium-dependent serotonin transporter (Homo sapiens, UniProt P31645)
Chain of Sodium-dependent serotonin transporter (P31645 whole entry): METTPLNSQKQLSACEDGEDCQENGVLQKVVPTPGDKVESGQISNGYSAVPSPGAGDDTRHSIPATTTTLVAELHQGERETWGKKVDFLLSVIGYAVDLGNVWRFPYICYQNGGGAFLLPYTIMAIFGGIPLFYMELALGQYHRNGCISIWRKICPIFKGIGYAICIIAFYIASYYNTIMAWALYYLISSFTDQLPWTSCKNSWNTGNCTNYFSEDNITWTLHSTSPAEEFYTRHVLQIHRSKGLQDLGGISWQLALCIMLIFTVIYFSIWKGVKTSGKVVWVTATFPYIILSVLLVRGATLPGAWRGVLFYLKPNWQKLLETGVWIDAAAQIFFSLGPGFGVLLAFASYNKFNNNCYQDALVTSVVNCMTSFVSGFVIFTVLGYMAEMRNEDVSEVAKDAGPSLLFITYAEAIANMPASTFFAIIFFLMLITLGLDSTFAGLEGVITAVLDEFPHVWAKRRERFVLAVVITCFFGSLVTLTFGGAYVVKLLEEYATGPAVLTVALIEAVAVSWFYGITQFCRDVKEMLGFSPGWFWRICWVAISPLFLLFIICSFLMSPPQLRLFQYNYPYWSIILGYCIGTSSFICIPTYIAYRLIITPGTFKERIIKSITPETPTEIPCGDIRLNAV

[5] = molecular target: T3, Alpha-1A adrenergic receptor (Homo sapiens, UniProt P35348); assay type: functional, cell-based
T3 sequence (P35348 whole entry): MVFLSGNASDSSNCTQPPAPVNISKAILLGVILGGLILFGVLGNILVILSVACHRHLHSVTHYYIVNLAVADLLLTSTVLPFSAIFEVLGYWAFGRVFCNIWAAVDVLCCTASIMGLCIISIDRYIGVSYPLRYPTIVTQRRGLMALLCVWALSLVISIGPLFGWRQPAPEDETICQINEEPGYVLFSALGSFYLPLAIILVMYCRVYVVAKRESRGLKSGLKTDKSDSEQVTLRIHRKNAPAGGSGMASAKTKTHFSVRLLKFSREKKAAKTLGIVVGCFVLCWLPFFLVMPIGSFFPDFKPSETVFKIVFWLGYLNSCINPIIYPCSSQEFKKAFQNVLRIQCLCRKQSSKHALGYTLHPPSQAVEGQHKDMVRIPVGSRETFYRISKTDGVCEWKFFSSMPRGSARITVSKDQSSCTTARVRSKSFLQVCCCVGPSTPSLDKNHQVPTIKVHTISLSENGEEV

[6] = molecular target: Cannabinoid receptor 1 (Homo sapiens, UniProt P21554); assay type: functional, cell-based
Chain of Cannabinoid receptor 1 (P21554 whole entry): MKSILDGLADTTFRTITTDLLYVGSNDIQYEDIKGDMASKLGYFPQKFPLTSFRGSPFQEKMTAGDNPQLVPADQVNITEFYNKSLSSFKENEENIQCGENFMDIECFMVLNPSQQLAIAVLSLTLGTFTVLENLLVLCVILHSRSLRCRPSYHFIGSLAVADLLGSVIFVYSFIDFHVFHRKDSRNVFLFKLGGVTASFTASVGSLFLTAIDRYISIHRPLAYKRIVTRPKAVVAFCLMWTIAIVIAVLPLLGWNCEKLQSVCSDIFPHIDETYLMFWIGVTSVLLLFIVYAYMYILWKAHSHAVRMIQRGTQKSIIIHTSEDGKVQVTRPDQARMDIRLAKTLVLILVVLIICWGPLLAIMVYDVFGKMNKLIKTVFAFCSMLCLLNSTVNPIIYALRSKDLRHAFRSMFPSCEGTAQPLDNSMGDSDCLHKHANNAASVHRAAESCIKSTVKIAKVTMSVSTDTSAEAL

[7] = molecular target: T4, Alpha-2B adrenergic receptor (Homo sapiens, UniProt P18089)
T4 sequence (P18089 whole entry): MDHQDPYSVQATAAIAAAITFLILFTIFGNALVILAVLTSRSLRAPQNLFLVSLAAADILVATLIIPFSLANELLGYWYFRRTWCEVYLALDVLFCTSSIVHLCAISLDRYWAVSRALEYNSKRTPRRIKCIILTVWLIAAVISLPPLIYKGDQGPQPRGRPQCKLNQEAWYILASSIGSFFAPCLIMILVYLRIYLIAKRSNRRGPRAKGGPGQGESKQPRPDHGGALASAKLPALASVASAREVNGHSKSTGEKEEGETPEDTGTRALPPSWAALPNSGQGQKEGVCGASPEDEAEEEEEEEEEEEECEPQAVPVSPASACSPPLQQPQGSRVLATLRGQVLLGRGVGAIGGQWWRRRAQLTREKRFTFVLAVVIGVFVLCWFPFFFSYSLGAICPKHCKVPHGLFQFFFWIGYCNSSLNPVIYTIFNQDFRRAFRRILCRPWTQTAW

[8] = molecular target: Beta-2 adrenergic receptor (Homo sapiens, UniProt P07550)
Chain of Beta-2 adrenergic receptor (P07550 whole entry): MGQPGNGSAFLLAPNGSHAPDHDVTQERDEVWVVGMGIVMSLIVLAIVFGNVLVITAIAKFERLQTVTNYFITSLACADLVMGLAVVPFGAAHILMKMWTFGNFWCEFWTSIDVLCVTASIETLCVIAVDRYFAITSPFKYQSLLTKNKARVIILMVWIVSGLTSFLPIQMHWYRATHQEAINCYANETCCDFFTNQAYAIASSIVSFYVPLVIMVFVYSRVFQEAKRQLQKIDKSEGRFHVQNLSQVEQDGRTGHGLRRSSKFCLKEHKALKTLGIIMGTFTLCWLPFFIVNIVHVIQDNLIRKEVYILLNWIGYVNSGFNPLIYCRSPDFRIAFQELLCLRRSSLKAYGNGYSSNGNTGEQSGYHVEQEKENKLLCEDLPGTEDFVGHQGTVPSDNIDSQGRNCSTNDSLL

[9] = molecular target: T5, B2 bradykinin receptor (Homo sapiens, UniProt P30411)
T5 sequence (P30411 whole entry): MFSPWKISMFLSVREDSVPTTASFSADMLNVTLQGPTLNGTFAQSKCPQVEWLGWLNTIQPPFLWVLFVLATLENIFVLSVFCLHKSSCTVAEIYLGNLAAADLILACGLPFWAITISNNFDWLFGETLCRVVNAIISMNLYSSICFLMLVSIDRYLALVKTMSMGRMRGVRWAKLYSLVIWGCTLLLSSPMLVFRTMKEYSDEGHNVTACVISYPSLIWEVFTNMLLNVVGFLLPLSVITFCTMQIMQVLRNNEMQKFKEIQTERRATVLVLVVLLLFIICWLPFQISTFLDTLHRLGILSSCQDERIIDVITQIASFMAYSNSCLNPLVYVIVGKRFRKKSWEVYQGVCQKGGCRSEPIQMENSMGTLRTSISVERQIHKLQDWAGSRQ

[10] = molecular target: Kappa-type opioid receptor (Homo sapiens, UniProt P41145)
Chain of Kappa-type opioid receptor (P41145 whole entry): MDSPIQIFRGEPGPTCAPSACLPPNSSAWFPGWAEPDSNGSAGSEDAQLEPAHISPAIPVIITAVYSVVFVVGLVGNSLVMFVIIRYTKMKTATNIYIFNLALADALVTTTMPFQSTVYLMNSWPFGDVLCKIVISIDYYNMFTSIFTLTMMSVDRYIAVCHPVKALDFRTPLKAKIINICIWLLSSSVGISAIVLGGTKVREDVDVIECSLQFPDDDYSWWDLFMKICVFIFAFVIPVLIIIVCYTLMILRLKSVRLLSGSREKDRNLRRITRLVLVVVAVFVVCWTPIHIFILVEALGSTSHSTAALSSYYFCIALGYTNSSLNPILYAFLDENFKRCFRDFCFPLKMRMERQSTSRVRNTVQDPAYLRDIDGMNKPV

[11] = molecular target: T6, Gastrin/cholecystokinin type B receptor (Homo sapiens, UniProt P32239)
T6 sequence (P32239 whole entry): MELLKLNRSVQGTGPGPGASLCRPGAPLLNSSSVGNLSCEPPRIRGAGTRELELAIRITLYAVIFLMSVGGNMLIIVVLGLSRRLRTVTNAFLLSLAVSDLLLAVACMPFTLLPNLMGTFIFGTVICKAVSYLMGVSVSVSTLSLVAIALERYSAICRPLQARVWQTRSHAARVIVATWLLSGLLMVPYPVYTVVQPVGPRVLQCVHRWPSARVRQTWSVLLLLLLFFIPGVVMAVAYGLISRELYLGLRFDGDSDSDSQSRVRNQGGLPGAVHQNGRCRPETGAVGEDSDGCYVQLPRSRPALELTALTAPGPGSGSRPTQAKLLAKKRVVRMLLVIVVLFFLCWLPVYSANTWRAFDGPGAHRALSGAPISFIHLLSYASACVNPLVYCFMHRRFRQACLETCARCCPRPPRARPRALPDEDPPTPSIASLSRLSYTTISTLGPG

[12] = molecular target: Vasopressin V2 receptor (Homo sapiens, UniProt P30518)
Chain of Vasopressin V2 receptor (P30518 whole entry): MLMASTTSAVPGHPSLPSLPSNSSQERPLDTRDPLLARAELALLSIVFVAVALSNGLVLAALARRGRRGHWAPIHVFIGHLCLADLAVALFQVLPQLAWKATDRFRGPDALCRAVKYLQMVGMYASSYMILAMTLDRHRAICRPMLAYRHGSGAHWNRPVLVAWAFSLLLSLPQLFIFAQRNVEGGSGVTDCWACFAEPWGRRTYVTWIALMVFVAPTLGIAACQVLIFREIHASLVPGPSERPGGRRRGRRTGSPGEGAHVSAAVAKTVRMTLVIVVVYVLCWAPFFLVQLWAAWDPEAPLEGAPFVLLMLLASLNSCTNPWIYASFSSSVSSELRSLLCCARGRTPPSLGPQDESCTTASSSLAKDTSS

Measured: AC50
Also: assay procedure not described here.

CN(C)S(=O)(=O)c1ccc2c(c1)N(CCCN1CCC(CCO)CC1)c1ccccc1S2 [PIPOTIAZINE]
0.313 µM: [3]
> 30 µM: [1] | [2] | [4]

COCCCN1CCC(NC(=O)c2cc(Cl)c(N)c3c2OCC3)CC1 [PRUCALOPRIDE]
> 30 µM: [1] | [6] | [3] | [7] | [4]
15 µM: [5]

CCCCCCOc1nsnc1C1=CCCN(C)C1 [XANOMELINE]
> 30 µM: [1] | [2]
1.39 µM: [3]
18.5 µM: [4]

Cc1cn([C@H]2C=C[C@@H](CO)O2)c(=O)[nH]c1=O [STAVUDINE]
> 30 µM: [1] | [9] | [5] | [2] | [6] | [11] | [12] | [3]
> 10 µM: [8] | [10]

CCc1oc2ccccc2c1C(=O)c1cc(I)c(O)c(I)c1 [BENZIODARONE]
> 30 µM: [4]
29.9 µM: [3]
29 µM: [1]

CS(=O)(=O)c1ccc(C2=C(c3ccccc3)C(=O)OC2)cc1 [ROFECOXIB]
> 30 µM: [1] | [9] | [5] | [2] | [6] | [11] | [12] | [3]
> 10 µM: [8] | [10]

O=C(CCNNC(=O)c1ccncc1)NCc1ccccc1 [NIALAMIDE]
> 30 µM: [1] | [2] | [3] | [4]

CC(=O)N[C@@H]1[C@@H](O)[C@H](O)[C@@H](CO)O[C@H]1O [N-ACETYLGLUCOSAMINE]
> 30 µM: [1] | [2] | [3] | [4]

COC(c1ccccc1)(c1ccccc1)[C@H](Oc1nc(C)cc(C)n1)C(=O)O [AMBRISENTAN]
> 30 µM: [1] | [2] | [3] | [4]

CC1(C)NC(=O)N(c2ccc([N+](=O)[O-])c(C(F)(F)F)c2)C1=O [NILUTAMIDE]
> 30 µM: [8] | [1] | [9] | [10] | [11] | [12] | [3] | [7] | [4]

CCC(=O)NCC[C@@H]1CCc2ccc3c(c21)CCO3 [RAMELTEON]
> 30 µM: [1] | [3] | [4]

N[C@H](C(=O)O)[C@H](O)c1ccc(O)c(O)c1 [DROXIDOPA]
> 30 µM: [1] | [2] | [3] | [4]

CCOC(=O)[C@H](CCc1ccccc1)N[C@@H](C)C(=O)N1[C@H](C(=O)O)C[C@H]2CCCC[C@@H]21 [TRANDOLAPRIL]
> 30 µM: [1] | [2] | [3] | [4]

O=C(Cc1ccc(-c2ccccc2)cc1)Nc1ccccn1 [DIFENPIRAMIDE]
> 30 µM: [1] | [5] | [10] | [6] | [3] | [7] | [4]

CC(C)Nc1ncccn1 [ISAXONINE]
> 30 µM: [1] | [2] | [3] | [4]

OCCN1C[C@H](O)[C@@H](O)[C@H](O)[C@H]1CO [MIGLITOL]
> 30 µM: [1] | [2] | [3] | [4]

Oc1c(Cl)cc(Cl)c2cccnc12 [CHLOROXINE]
> 30 µM: [1] | [2] | [3] | [4]

Cc1cc(C#N)cc(C)c1Oc1nc(Nc2ccc(C#N)cc2)nc(N)c1Br [ETRAVIRINE]
20 µM: [3]
> 10 µM: [1]
> 30 µM: [4]

CN(C)CCn1nnnc1SCC1=C(C(=O)O)N2C(=O)[C@@H](NC(=O)Cc3csc(N)n3)[C@H]2SC1 [CEFOTIAM]
> 30 µM: [1] | [3] | [4]

CN(C)[C@@H](c1cccc(O)c1)[C@H]1CCCC[C@H]1O [CIRAMADOL]
9.31 µM: [2]
27.5 µM: [4]
> 30 µM: [1] | [3]

CN(C)CCN1C(=O)c2ccccc2N(C)c2ccccc21 [DIBENZEPIN]
1.32 µM: [4]
> 30 µM: [1] | [2]
9.47 µM: [3]

NCC(CC(=O)O)c1ccc(Cl)cc1 (centres undefined) [BACLOFEN]
> 30 µM: [1] | [9] | [5] | [2] | [6] | [11] | [12] | [3]
> 10 µM: [8] | [10]

N[C@@H](C(=O)N[C@@H]1C(=O)N2C(C(=O)O)=C(Cl)CC[C@H]12)c1ccccc1 [LORACARBEF ANHYDROUS]
> 30 µM: [1] | [3] | [4]

CC(C)(C)NC[C@H](O)COc1ccccc1C1CCCC1 [PENBUTOLOL]
5.53 µM: [4]
0.966 µM: [3]
> 30 µM: [1] | [2]

CO[C@H]1C[C@@H]2CC[C@@H](C)[C@@](O)(O2)C(=O)C(=O)N2CCCC[C@H]2C(=O)O[C@H]([C@H](C)C[C@@H]2CC[C@@H](O)[C@H](OC)C2)CC(=O)[C@H](C)/C=C(\C)[C@@H](O)[C@@H](OC)C(=O)[C@H](C)C[C@H](C)/C=C/C=C/C=C/1C [SIROLIMUS]
> 10 µM: [8] | [10]
> 30 µM: [1] | [9] | [5] | [2] | [6] | [11] | [12] | [3]
